Laboratory results as given in patent US20260317324A1, “BIFUNCTIONAL COMPOUNDS FOR DEGRADING BRAF VIA UBIQUITIN PROTEOSOME PATHWAY” (Nurix Therapeutics, Inc., priority 2023, published 2026).

Biological target: T1, BRAF V600E (Homo sapiens, UniProt P15056, V600E)
T1 construct: endogenous C-terminal HiBiT fusion tag on BRAF V600E allele; endogenous in cells; host or cells: A375 clone 1F10 (CRISPR-Cas9 knock-in of the HiBiT tag; parental A375 from ATCC)
Experiment: BRAF HiBiT degradation assay, C-terminal HiBiT-tagged BRAF V600E A375 cells (clone 1F10), Nano-Glo HiBiT Lytic assay
Type: cell-based
Conditions: A375 (BRAF V600E); for DC50: DC50 at 50%: fitted conc. at Y=50; for Dmax: A-375, percentage protein degraded at maximal compound effect relative to DMSO
How it was run: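 Luminescence read-out: Nano-Glo HiBiT lytic reagent with LgBiT, 10 min at room temperature. Signal normalised to DMSO-treated tagged cells, with wildtype A375 as background. Cells are endogenously tagged BRAF V600E A375 clone 1F10. Compounds were tested from 1 μM to 0.01 nM; Dmax is observed % degraded at maximal effect.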

T1 sequence (P15056 whole entry V600E, the tested form may be a part): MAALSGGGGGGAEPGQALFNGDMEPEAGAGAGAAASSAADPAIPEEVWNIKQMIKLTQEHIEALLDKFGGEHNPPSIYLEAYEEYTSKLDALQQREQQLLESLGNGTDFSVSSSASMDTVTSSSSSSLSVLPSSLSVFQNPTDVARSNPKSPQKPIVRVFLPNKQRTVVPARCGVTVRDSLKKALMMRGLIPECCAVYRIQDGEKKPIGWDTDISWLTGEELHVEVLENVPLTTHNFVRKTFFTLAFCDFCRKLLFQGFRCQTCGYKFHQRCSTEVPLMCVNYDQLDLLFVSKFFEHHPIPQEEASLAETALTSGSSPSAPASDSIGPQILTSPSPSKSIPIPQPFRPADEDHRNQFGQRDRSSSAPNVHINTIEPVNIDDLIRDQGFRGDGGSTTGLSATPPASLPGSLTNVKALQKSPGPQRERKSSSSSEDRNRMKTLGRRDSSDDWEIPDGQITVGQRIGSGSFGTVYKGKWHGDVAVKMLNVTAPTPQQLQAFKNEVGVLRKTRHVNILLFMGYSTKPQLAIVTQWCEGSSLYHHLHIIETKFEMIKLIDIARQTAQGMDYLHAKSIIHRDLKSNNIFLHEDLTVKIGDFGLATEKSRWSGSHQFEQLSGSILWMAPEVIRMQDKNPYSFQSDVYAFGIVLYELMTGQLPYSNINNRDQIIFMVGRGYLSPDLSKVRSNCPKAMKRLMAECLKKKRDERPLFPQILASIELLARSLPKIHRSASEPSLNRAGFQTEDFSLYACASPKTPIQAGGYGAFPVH

| SMILES | DC50 [nM] | Dmax [%] |
| --- | --- | --- |
| CCCS(=O)(=O)Nc1cccc(-c2nc(C(C)(C)C)sc2-c2ccnc(Nc3ccc4c(c3)CCN(C(=O)C3CCN(c5ccc(C(=O)NC6CCC(=O)NC6=O)nc5)CC3)C4)n2)c1F (racemic) [Compound 122, Rac-5-(4-{6-[(4-{2-tert-butyl-4-[2-fluoro-3-(propane-1-sulfonamido)phenyl]-1,3-thiazol-5-yl}pyrimidin-2-yl)amino]-1,2,3,4-tetrahydroisoquinoline-2-carbonyl}piperidin-1-yl)-N-[(3R)-2,6-dioxopiperidin-3-yl]pyridine-2-carboxamide] |  | 30 to 70 |
| CCCS(=O)(=O)Nc1cccc(-c2nc(C3CCN(C(=O)C4CCN(C(=O)C5CCN(c6ccc(C7CCC(=O)NC7=O)cc6)CC5)CC4)CC3)sc2-c2ccnc(N)n2)c1F (racemic) [Compound 216, Rac-N-{3-[5-(2-aminopyrimidin-4-yl)-2-{1-[1-(1-{4-[(3R)-2,6-dioxopiperidin-3-yl]phenyl}piperidine-4-carbonyl)piperidine-4-carbonyl]piperidin-4-yl}-1,3-thiazol-4-yl]-2-fluorophenyl}propane-1-sulfonamide] | < 10 | > 70 |
| CCCS(=O)(=O)Nc1cccc(-c2nc(C(C)(C)C)sc2-c2ccnc(Nc3cnn(C4CCN(CC5CCN(c6ccc(C(=O)NC7CCC(=O)NC7=O)nc6)CC5)CC4)c3)n2)c1F (racemic) [Compound 79, Rac-5-{4-[(4-{4-[(4-{2-tert-butyl-4-[2-fluoro-3-(propane-1-sulfonamido)phenyl]-1,3-thiazol-5-yl}pyrimidin-2-yl)amino]-1H-pyrazol-1-yl}piperidin-1-yl)methyl]piperidin-1-yl}-N-[(3R)-2,6-dioxopiperidin-3-yl]pyridine-2-carboxamide] | < 10 | 30 to 70 |
| CCCS(=O)(=O)Nc1cccc(-c2nc(C(C)(C)C)sc2-c2ccnc(Nc3cccc(OC4CCN(CC5CCN(c6ccc7c(=O)n(C8CCC(=O)NC8=O)ccc7c6)CC5)CC4)c3)n2)c1F (racemic) [Compound 71, Rac-N-{3-[2-tert-butyl-5-(2-{[3-({1-[(1-{2-[(3R)-2,6-dioxopiperidin-3-yl]-1-oxo-1,2-dihydroisoquinolin-6-yl}piperidin-4-yl)methyl]piperidin-4-yl}oxy)phenyl]amino}pyrimidin-4-yl)-1,3-thiazol-4-yl]-2-fluorophenyl}propane-1-sulfonamide] | 10 to 50 | 30 to 70 |
| CCCS(=O)(=O)Nc1cccc(-c2nc(C(C)(C)C)sc2-c2ccnc(Nc3ccc(C4CCN(C(=O)C[C@@H]5CCN(c6ccc7c(c6)n(C)c(=O)n7C6CCC(=O)NC6=O)C5)CC4)cc3)n2)c1F (mixture of isomers) [Compound 162, N-{3-[2-tert-butyl-5-(2-{[4-(1-{2-[(3S)-1-{1-[(3RS)-2,6-dioxopiperidin-3-yl]-3-methyl-2-oxo-2,3-dihydro-1H-1,3-benzodiazol-5-yl}pyrrolidin-3-yl]acetyl}piperidin-4-yl)phenyl]amino}pyrimidin-4-yl)-1,3-thiazol-4-yl]-2-fluorophenyl}propane-1-sulfonamide] | 10 to 50 | 30 to 70 |
| CCCS(=O)(=O)Nc1cccc(-c2nc(C(C)(C)C)sc2-c2ccnc(Nc3ccc(C4CCN(C(=O)CCCCCc5ccc6c(c5)C(=O)N(C5CCC(=O)NC5=O)C6)CC4)cc3)n2)c1F (racemic) [Compound 151, Rac-N-(3-{2-tert-butyl-5-[2-({4-[1-(6-{2-[(3R)-2,6-dioxopiperidin-3-yl]-3-oxo-2,3-dihydro-1H-isoindol-5-yl}hexanoyl)piperidin-4-yl]phenyl}amino)pyrimidin-4-yl]-1,3-thiazol-4-yl}-2-fluorophenyl)propane-1-sulfonamide] | 10 to 50 | 30 to 70 |
| CCCS(=O)(=O)Nc1cccc(-c2cn(-c3ccc(C(=O)N4CCN(CC5CCN(c6ccc([C@H]7CCC(=O)NC7=O)cc6)CC5)CC4)cc3)nc2-c2ccncc2)c1F [Compound 11, N-{3-[1-(4-{4-[(1-{4-[(3R)-2,6-dioxopiperidin-3-yl]phenyl}piperidin-4-yl)methyl]piperazine-1-carbonyl}phenyl)-3-(pyridin-4-yl)-1H-pyrazol-4-yl]-2-fluorophenyl}propane-1-sulfonamide] | 50 to 500 | 30 to 70 |

Other lines, results leading:

| DC50 [nM] | Dmax [%] | SMILES |
| --- | --- | --- |
| 10 to 50 | > 70 | CCCS(=O)(=O)Nc1cccc(-c2nc(C(C)(C)C)sc2-c2ccnc(Nc3ccc(C4CCN(C(=O)C5CCN(c6ccc(C7CCC(=O)NC7=O)cn6)CC5)CC4)cc3)n2)c1F (racemic) [Compound 156, Rac-N-(3-{2-tert-butyl-5-[2-({4-[1-(1-{5-[(3R)-2,6-dioxopiperidin-3-yl]pyridin-2-yl}piperidine-4-carbonyl)piperidin-4-yl]phenyl}amino)pyrimidin-4-yl]-1,3-thiazol-4-yl}-2-fluorophenyl)propane-1-sulfonamide] |
| 10 to 50 | 30 to 70 | CCCS(=O)(=O)Nc1cccc(-c2nc(C(C)(C)C)sc2-c2ccnc(Nc3cccc(OC4CCN(C(=O)CN5CCN(c6cc(C7CCC(=O)NC7=O)ccn6)CC5)CC4)c3)n2)c1F (racemic) [Compound 93, Rac-N-{3-[2-tert-butyl-5-(2-{[3-({1-[2-(4-{4-[(3R)-2,6-dioxopiperidin-3-yl]pyridin-2-yl}piperazin-1-yl)acetyl]piperidin-4-yl}oxy)phenyl]amino}pyrimidin-4-yl)-1,3-thiazol-4-yl]-2-fluorophenyl}propane-1-sulfonamide] |
| 10 to 50 | > 70 | CCN(C)S(=O)(=O)Nc1cccc(-c2nc(C)sc2-c2ccnc(Nc3ccc(N4CCN(CC5(C)CCN(c6ccc(C7CCC(=O)NC7=O)cn6)CC5)CC4)cn3)n2)c1F (racemic) [Compound 34, Rac-(3S)-3-{6-[4-({4-[6-({4-[4-(3-{[ethyl(methyl)sulfamoyl]amino}-2-fluorophenyl)-2-methyl-1,3-thiazol-5-yl]pyrimidin-2-yl}amino)pyridin-3-yl]piperazin-1-yl}methyl)-4-methylpiperidin-1-yl]pyridin-3-yl}piperidine-2,6-dione] |
| < 10 | > 70 | CCCS(=O)(=O)Nc1cccc(-c2nc(-c3ccc(N4CCN(C(=O)CC5CCN(c6ccc(C7CCC(=O)NC7=O)cn6)CC5)CC4)cc3)sc2-c2ccnc(N)n2)c1F (racemic) [Compound 189, Rac-N-{3-[5-(2-aminopyrimidin-4-yl)-2-(4-{4-[2-(1-{5-[(3R)-2,6-dioxopiperidin-3-yl]pyridin-2-yl}piperidin-4-yl)acetyl]piperazin-1-yl}phenyl)-1,3-thiazol-4-yl]-2-fluorophenyl}propane-1-sulfonamide] |
| 10 to 50 | 30 to 70 | CCCS(=O)(=O)Nc1cccc(-c2nc(C(C)(C)C)sc2-c2ccnc(Nc3cccc(C4CCN(CC[C@H]5CCN(c6ccc(C7CCC(=O)NC7=O)cn6)C5)CC4)c3)n2)c1F (mixture of isomers) [Compound 74, N-{3-[2-tert-butyl-5-(2-{[3-(1-{2-[(3S)-1-{5-[(3RS)-2,6-dioxopiperidin-3-yl]pyridin-2-yl}pyrrolidin-3-yl]ethyl}piperidin-4-yl)phenyl]amino}pyrimidin-4-yl)-1,3-thiazol-4-yl]-2-fluorophenyl}propane-1-sulfonamide] |
